This passage reports Km results from PMC11940195, “Characterization of a GH43 Bifunctional Glycosidase from Endophytic Chaetomium globosum and Its Potential Application in the Biotransformation of Ginsenosides” (BioTech, 2025).

As a reminder, the Km is the concentration of substrate that gives half-maximal velocity.

In the experiment the test system is T1, Xyaf313.
T1 construct: gene of 1380 bp, 460 aa, about 50 kDa theoretical; C-terminal His6; codon-optimized, pPIC9K, secreted from Pichia pastoris GS115, Ni-NTA
Kind of experiment: p-nitrophenol release, Michaelis-Menten nonlinear fit. The class given is biochemical, Chaetomium globosum. The note with it: pH 7, 50 °C (optimal conditions); substrate 0.5-5.0 mM. The text has this: p-nitrophenol release, Michaelis-Menten nonlinear fit on Xyaf313

On to `O=[N+]([O-])c1ccc(O[C@@H]2OC[C@@H](O)[C@H](O)[C@H]2O)cc1` [ρ-nitrophenyl β-D-xylopyranoside], for which the Km was 1.77 ± 1.27 mM.

Regarding `O=[N+]([O-])c1ccc(O[C@@H]2O[C@@H](CO)[C@H](O)[C@H]2O)cc1` [4-nitrophenyl α-L-arabinofuranoside], the Michaelis-Menten constant (Km) worked out at 5.65 ± 1.67 mM.
